Experimental data from patent US20240199571A1, “THIOPHENE COMPOUND AND APPLICATION THEREOF” (MEDSHINE DISCOVERY INC., priority 2021, published 2024).
Structures can show the parent of a compound that is named as a salt.

Tests used:
[1] = Experiment 3: pharmacokinetic evaluation in CD-1 mice (IV and oral); assay type: in vivo; details: mouse, plasma, male CD-1 mice; for clearance / half-life / Vd: IV 1 mg/kg; for clearance: read-out: Clearance rate CL; for half-life: read-out: Half life T1/2 (IV, h) (converted); for Vd: read-out: Volume of distribution at steady state Vdss; for bioavailability: PO 2 mg/kg vs IV 1 mg/kg, read-out: Bioavailability F (%); for AUC(0-t): PO 2 mg/kg, read-out: Area under drug-time curve AUC0-last PO; for Cmax: single dose, oral 2 mg/kg, read-out: Peak concentration Cmax
Method in brief: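 Male/female CD-1 mice aged 7-9 weeks, two per route, received single doses of 1 mg/kg IV or 2 mg/kg oral gavage in 10% DMSO/90% of 10% HP-β-cyclodextrin. Plasma was sampled from 0.083 (IV) or 0.25 (PO) to 24 h. Methanol-precipitated samples were measured by LC-MS/MS to derive Cmax, CL, T1/2, Vdss, AUC0-last and F.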

[2] = molecular target: hERG potassium ion channels (Homo sapiens (Human), UniProt Q12809); assay: Experiment 4: hERG potassium ion channel inhibition, automated patch clamp (Qpatch), CHO-hERG cells; assay type: cell-based; details: highest test concentration 40 μM
Sequence of hERG potassium ion channels (Q12809 whole entry): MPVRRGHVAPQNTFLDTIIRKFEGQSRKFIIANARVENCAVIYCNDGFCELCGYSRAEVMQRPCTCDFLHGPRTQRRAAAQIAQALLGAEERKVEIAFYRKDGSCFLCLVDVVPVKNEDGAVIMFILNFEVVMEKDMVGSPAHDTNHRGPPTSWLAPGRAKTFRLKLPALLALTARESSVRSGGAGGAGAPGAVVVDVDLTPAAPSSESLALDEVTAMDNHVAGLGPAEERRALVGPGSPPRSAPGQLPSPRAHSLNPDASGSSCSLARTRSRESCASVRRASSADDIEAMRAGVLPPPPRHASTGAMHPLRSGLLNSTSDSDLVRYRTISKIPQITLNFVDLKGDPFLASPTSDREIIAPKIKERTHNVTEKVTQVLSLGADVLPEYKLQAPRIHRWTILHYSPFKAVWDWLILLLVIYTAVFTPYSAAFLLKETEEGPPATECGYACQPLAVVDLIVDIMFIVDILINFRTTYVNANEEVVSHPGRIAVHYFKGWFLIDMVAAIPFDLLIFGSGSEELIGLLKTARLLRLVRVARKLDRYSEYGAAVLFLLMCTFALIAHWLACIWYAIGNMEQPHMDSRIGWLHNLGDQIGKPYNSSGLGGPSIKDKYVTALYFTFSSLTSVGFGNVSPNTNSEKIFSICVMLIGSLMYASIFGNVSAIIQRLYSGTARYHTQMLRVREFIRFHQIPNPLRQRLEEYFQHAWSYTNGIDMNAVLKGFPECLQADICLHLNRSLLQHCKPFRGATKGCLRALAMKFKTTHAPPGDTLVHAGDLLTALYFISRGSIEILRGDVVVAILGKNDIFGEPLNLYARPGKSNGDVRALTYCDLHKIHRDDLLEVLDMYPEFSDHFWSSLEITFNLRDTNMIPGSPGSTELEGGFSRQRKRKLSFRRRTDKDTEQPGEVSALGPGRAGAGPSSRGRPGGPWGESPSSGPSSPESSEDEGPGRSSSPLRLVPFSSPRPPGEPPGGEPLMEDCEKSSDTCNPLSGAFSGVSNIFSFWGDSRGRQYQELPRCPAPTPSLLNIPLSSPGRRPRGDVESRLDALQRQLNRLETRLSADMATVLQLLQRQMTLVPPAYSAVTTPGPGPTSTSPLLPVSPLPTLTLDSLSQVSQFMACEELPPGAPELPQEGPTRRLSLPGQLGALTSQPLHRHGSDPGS
Method in brief: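 Whole-cell automated patch clamp on CHO-hERG cells held at −80 mV: 50 ms −50 mV prepulse, 5 s +40 mV step, 5 s repolarization to −50 mV, every 15 s. Six final concentrations from 0.165 to 40 μM applied ascending, 2.5 min each; n≥3 cells per concentration.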

[3] = tested on: NCI-H1417 cells; assay: Experiment 2: inhibition of NCI-H1417 cell proliferation (CellTiter-Glo, 10 days); assay type: cell-based; details: Homo sapiens, 240 h, 10 days incubation
Method in brief: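 Cells at 1000 per well exposed to 10-point 3-fold dilutions from 10 μM top concentration for 10 days. Viability by CellTiter-Glo luminescence; inhibition normalized to max/min controls, IC50 from four-parameter fit.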

[4] = molecular target: human LSD1 (Homo sapiens (Human), UniProt O60341); assay: Experiment 1B: in vitro LSD1 enzyme activity, enzyme-coupled fluorescence (HRP/Amplex Red), H3(1-21)K4me2 peptide 10 μM (Reaction Biology); assay type: biochemical; details: histone H3(1-21)K4me2 peptide 10 μM
Method in brief: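 Human LSD1 with 10 μM histone H3(1-21)K4me2 peptide; enzyme and substrate incubated 30 min before compound addition started the reaction. H2O2 detected via HRP/Amplex Red fluorescence (Ex/Em 535/590). IC50 from 10-point 3-fold dilutions starting at 10 μM.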

Row | clearance [1] | half-life [1] | Vd [1] | bioavailability [1] | AUC(0-t) [1] | Cmax [1] | IC50 [3] | IC50 [4] | SMILES | IC50 [2]
1 | 25.7 mL/min/kg | 1.54 h | 3.13 L/kg | 41.1% | 1.01 µM·h | 267 nM | 5.11 nM | 24.8 nM | CC(C)(CO)n1cc2cc(-c3sc(C(=O)N4CCC[C@@H](N)C4)cc3-c3ccc(C#N)c(F)c3)ccc2n1 [Hydrochloride of compound 87] | 13400 nM
2 | 45.3 mL/min/kg | 2.28 h | 6.94 L/kg | 58.6% | 0.708 µM·h | 160 nM | 0.07 nM | 12.6 nM | CN[C@@H]1CCCN(C(=O)c2cc(-c3ccc(C#N)c(F)c3)c(-c3cc4nnn(CC(C)(C)O)c4c(F)c3F)s2)C1 [Hydrochloride of compound 98] | 18600 nM
